The text below walks through data of patent US11787826B2, “Hydrocarbyl tin complex of alkynyl phosphonic acid with antitumor activity and application thereof” (priority 2020, dated 2023).

What all share (format): cell-based
Test [1] has as its system MCF7 (human breast cancer cells). How it is done:
(§1) MCF-7, HT-29, A549 and HepG2 cells are got from American Tissue Culture Collection, which are cultured with the culture medium containing 10% bovine fetal serum in a CO2-containing incubator at 37° C. MTT method is used to detect cell proliferation and growth inhibition. The number of experimental cells is adjusted to obtain the absorbance at 570 nm. 6 concentrations are set for the compound test solution (0.1 nmol/L˜10 μmol/L). The cells are treated for 72 hours. At least 3 parallel experiments and 3 repeated experiments are conducted for each concentration. The IC50 value is determined by statistical analysis.
(§2) Taking cisplatin as the contrast, the in vitro growth inhibitory activity of Compound 1 and Compound 2 on tumor cells are tested, including MCF7 (human breast cancer cells), HT-29 (human colon cancer cells), A549 (human lung cancer cells) and HepG2 (liver cancer cells).

For test [2], the system named is A549 (human lung cancer cells). How it is done: as §1, §2
For test [3], the system named is HT-29 (human colon cancer cells). On the procedure: as §1, §2
For test [4], the system named is HepG2 (liver cancer cells). On the procedure: as §1, §2
Where [5] appears, read: MCF7 cells, MTT, 72 hours treatment.
The mark [6] stands for this setting: A549 cells, MTT, 72 hours treatment.
[7] abbreviates: HT-29 cells, MTT, 72 hours treatment.
[8] abbreviates: HepG2 cells, MTT, 72 hours treatment.

pIC50: −log10 of the molar value. Like-named read-outs stand apart in the source and are kept apart here.

As usually defined, the pIC50 is −log10 of the IC50, conventionally taken in molar units.

In the case of “Tri-n-butyltin (IV) (3,5-dimethylphenyl) Acetylenyl Phosphonic Acid Derivatives [Compound 1]”, the pIC50 in test [1] (setting [5]) was 6.71; in test [2] (setting [6]), 7.48; in test [3] (setting [7]), 6.20; in test [4] (setting [8]), 6.68.

For the molecule `N.N.[Cl][Pt][Cl]` [Cisplatin, cisplatin, reference compound], the pIC50 in test [1] (setting [5]) is 4.37; in test [2] (setting [6]), 5.89; in test [3] (setting [7]), 4.46; in test [4] (setting [8]), 4.77.

Turning to “tri-n-butyltin (IV) (3-Trifluoromethyl Phenyl) acetylenyl phosphonic acid derivatives [Compound 2]”, the pIC50 in test [1] is 5.76; in test [2], 6.56; in test [3], 6.02; in test [4], 6.06.
